Assay results taken from patent US20120245137A1 (Zalicus Pharmaceuticals Ltd., priority 2009, published 2012).

Assays:
Type in all cases: cell-based
[1] = biological target: human α1G T-type channels (Homo sapiens, UniProt O43497); assay: T-type calcium channel block, whole cell patch clamp, α1G; details: HEK cells stably expressing human α1G; mainly non-inactivated protocol; values above 10,000 nM represented as 10000
Summary of the method: (§1)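 Whole-cell voltage clamp on stably transfected HEK 293 lines carrying human α1H or α1G. Two voltage protocols used: non-inactivated pre-pulse for resting block, inactivated for voltage-dependent block; test agents perfused locally in external solution (0.1-0.01% DMSO) following ~10 min rest.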

[2] = biological target: human α1H T-type channels (Homo sapiens, UniProt O95180); assay: T-type calcium channel block, whole cell patch clamp, α1H; details: HEK cells stably expressing human α1H; mainly non-inactivated protocol; values above 10,000 nM represented as 10000
Sequence of human α1H T-type channels (O95180 whole entry): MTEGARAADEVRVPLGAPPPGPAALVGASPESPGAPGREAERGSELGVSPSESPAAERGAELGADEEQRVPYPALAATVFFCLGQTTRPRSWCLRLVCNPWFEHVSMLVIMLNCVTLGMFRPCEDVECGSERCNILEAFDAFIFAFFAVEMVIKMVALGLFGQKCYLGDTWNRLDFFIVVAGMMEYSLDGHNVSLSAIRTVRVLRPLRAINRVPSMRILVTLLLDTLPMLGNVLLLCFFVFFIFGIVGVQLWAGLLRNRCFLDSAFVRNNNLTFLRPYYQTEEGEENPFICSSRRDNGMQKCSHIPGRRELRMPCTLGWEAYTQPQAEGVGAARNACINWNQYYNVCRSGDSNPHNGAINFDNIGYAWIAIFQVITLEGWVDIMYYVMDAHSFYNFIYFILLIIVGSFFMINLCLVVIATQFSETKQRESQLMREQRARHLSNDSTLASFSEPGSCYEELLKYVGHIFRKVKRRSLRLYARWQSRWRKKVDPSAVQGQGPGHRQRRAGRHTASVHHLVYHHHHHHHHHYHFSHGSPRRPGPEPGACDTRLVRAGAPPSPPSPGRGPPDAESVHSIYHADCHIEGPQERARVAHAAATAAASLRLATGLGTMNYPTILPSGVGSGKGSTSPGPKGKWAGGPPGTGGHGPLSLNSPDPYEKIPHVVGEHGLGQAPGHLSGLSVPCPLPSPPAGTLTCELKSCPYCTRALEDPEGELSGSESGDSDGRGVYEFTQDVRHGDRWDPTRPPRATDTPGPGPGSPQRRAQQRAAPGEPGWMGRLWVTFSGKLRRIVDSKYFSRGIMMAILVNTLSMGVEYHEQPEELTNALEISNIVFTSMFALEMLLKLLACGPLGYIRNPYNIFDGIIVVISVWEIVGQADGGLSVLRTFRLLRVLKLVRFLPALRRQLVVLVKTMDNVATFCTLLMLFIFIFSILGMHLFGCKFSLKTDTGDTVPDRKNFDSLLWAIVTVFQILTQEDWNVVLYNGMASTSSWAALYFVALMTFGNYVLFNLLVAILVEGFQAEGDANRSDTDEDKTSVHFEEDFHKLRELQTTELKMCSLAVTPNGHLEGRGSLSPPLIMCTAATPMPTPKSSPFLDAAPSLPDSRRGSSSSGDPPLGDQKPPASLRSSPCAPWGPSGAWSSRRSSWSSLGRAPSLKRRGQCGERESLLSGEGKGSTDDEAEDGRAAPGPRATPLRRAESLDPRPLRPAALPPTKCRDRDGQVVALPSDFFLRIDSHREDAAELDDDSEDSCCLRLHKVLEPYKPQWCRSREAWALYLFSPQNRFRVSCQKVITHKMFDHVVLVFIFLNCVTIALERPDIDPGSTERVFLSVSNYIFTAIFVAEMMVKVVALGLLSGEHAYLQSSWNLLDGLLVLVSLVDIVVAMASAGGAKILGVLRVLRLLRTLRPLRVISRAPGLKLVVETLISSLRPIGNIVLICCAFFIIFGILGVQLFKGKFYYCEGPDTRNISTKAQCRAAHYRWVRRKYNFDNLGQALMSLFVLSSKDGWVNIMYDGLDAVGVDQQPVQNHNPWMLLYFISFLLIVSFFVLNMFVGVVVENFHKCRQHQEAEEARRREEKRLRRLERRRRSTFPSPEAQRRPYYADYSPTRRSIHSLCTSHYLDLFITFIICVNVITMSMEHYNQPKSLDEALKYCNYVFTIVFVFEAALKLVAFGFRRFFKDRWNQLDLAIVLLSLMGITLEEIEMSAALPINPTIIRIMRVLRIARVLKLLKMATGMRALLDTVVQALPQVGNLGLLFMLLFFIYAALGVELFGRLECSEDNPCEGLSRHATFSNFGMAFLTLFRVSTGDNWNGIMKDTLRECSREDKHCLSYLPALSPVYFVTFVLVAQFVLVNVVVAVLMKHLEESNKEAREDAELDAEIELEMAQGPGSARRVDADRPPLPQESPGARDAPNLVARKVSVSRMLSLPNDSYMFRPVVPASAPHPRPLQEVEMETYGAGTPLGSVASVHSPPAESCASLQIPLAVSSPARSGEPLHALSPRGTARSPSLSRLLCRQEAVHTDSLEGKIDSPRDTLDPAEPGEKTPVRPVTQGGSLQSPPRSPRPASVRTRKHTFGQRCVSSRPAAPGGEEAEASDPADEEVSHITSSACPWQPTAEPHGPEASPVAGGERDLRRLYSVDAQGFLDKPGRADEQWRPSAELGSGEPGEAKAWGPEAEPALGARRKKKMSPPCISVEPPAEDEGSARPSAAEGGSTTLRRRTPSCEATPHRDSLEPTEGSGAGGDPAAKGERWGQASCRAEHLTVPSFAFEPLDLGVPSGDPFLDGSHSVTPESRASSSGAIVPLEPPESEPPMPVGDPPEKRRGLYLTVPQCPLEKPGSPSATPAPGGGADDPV
Summary of the method: as §1

[3] = biological target: N-type calcium channel subunits (α1B, α2δ, and β3a) (Homo sapiens, UniProt Q00975); assay: Block of Cav2.2 channel, whole cell voltage clamp, manual and PatchXpress; details: Table 5; table follows Assay Example 3 (whole cell voltage clamp / PatchXpress); assay not given
Summary of the method: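 Percent block taken as current amplitude ratio with versus without compound, applied in rising doses; IC50 fitted where one cell received multiple doses. Protocol: 50 ms pulses to +20 mV at 0.067 Hz from […] or −90 mV holding; P/n leak subtraction, no junction-potential correction; manual and PatchXpress recordings.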

Sequence of human α1G T-type channels (O43497 whole entry, the tested form may be a part): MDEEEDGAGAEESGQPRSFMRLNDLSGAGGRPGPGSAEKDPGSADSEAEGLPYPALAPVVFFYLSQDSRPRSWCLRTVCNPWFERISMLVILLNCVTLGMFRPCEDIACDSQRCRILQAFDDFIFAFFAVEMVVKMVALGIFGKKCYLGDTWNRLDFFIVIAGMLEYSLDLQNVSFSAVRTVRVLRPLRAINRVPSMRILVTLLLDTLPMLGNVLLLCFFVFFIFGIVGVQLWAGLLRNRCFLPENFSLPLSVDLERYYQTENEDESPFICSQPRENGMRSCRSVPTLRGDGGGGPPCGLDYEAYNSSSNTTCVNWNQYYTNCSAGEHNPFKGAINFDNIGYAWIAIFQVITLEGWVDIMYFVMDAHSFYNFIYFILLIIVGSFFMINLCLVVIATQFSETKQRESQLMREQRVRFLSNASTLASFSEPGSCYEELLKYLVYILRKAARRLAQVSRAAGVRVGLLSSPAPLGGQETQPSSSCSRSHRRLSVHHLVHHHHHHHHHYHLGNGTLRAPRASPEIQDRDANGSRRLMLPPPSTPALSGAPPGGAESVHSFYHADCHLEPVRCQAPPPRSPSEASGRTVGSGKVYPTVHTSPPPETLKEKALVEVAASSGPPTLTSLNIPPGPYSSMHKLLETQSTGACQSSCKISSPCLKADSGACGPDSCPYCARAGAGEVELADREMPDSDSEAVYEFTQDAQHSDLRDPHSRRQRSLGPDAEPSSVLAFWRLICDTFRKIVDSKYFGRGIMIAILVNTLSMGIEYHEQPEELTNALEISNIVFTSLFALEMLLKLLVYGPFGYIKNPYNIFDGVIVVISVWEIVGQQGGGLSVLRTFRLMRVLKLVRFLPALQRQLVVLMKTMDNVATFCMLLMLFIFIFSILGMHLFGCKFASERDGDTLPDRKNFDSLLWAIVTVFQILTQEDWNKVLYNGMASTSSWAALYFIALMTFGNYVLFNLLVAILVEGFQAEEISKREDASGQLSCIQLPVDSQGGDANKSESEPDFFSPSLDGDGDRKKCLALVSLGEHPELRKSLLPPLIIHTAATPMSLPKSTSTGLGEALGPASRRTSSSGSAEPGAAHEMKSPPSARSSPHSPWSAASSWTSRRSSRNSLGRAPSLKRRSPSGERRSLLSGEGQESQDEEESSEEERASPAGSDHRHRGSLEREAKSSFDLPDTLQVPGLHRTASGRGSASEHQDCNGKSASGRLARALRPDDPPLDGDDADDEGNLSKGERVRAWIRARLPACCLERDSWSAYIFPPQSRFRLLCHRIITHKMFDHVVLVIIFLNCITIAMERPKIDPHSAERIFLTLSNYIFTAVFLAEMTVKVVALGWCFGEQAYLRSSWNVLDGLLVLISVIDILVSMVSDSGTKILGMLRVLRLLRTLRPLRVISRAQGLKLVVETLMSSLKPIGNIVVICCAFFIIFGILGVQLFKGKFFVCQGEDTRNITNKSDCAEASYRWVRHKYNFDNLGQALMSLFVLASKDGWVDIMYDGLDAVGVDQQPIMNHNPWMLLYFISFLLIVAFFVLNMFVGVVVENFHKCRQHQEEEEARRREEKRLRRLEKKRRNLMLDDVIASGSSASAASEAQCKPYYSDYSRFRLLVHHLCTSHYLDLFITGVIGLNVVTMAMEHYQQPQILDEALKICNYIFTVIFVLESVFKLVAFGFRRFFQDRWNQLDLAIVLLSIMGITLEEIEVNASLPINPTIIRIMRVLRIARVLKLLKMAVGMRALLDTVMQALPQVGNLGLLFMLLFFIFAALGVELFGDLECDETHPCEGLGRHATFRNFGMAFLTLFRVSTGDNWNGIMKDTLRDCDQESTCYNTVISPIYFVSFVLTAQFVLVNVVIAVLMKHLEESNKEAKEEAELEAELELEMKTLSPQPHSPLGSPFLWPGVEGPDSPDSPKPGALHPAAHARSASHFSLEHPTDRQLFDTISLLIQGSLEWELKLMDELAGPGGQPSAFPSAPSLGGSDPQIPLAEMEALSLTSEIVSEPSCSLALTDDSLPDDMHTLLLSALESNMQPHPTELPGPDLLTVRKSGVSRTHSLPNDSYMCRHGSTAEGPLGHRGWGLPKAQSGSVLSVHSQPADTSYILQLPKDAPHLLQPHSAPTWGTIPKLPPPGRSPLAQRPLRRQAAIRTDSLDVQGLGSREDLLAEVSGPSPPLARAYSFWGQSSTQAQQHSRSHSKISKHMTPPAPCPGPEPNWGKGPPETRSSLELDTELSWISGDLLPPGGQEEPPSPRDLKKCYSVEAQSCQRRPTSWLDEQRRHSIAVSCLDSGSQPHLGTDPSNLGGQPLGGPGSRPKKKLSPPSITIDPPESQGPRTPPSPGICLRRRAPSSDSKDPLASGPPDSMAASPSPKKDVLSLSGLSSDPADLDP

| Structure (SMILES) | IC50 [1] [nM] | IC50 [2] [nM] | IC50 [3] [nM] |
| --- | --- | --- | --- |
| CN(C(=O)c1ncc(C(F)(F)F)cc1S(C)(=O)=O)[C@H]1CC[C@@](F)(S(=O)(=O)c2cc(F)cc(C(F)(F)F)c2)CC1 [Compound 337, N-((1S,4S)-4-fluoro-4-(3-fluoro-5-(trifluoromethyl)phenylsulfonyl)cyclohexyl)-N-methyl-3-(methylsulfonyl)-5-(trifluoromethyl)picolinarnide] | > 10000 | 8660 | 910 |
| CN(C(=O)c1cn2cc(C(F)(F)F)ccc2n1)[C@H]1CC[C@@](F)(S(=O)(=O)c2cc(F)cc(C(F)(F)F)c2)CC1 [Compound 338, N-((1S,4S)-4-fluoro-4-(3-fluoro-5-(trifluoromethyl)phenylsulfonyl)cyclohexyl)-N-methyl-6-(trifluoromethyl) imidazo[1,2-a]pyridine-2-carboxamide] | > 10000 | 6790 | 770 |
| CC(C)S(=O)(=O)c1cc(C(F)(F)F)cnc1C(=O)N[C@H]1CC[C@@H](S(=O)(=O)c2cccc(C(F)(F)F)c2)CC1 [Compound 339, 3-(isopropylsulfonyl)-5-(trifluoromethyl)-N-((1S,4S)-4-(3-(trifluoromethyl)phenylsulfonyl)cyclohexyl) picolinamide] | 5270 | 3330 | 220 |
| CC(C)S(=O)(=O)c1cc(C(F)(F)F)cnc1C(=O)N[C@H]1CC[C@H](S(=O)(=O)c2cccc(C(F)(F)F)c2)CC1 [Compound 340, 3-(isopropylsulfonyl)-5-(trifluoromethyl)-N-((1R,4R)-4-(3-(trifluoromethyl)phenylsulfonyl)cyclohexyl) picolinamide] | 9870 | 3170 | 2010 |
| O=C(N[C@H]1C[C@H](CS(=O)(=O)c2cccc(C(F)(F)F)c2)C1)c1cc(F)cc(Cl)c1 [Compound 344, 3-chloro-5-fluoro-N-((1R,3R)-3-((3-(trifluoromethyl)phenylsulfonyl)methyl)cyclobutyl)benzamide] | > 10000 | > 10000 | 680 |
| O=C(N[C@H]1C[C@H](CS(=O)(=O)c2cccc(C(F)(F)F)c2)C1)c1ccc(F)c(C(F)(F)F)c1 [Compound 345, 4-fluoro-3-(trifluoromethyl)-N-((1R,3R)-3-((3-(trifluoromethyl)phenylsulfonyl)methyl)cyclobutyl)benzamide] | 5530 | 1930 | 580 |
| O=C(N[C@H]1C[C@H](CS(=O)(=O)c2cccc(C(F)(F)F)c2)C1)c1ccc(C(F)(F)F)cn1 [Compound 347, 5-(trifluoromethyl)-N-((1R,3R)-3-((3-(trifluoromethyl)phenylsulfonyl)methyl)cyclobutyl)picolinamide] | 2370 | 260 | 1120 |
| O=C(N[C@H]1C[C@H](CS(=O)(=O)c2cccc(C(F)(F)F)c2)C1)c1ccc(F)c(Cl)c1 [Compound 348, 3-chloro-4-fluoro-N-((1R,3R)-3-((3-(trifluoromethyl)phenylsulfonyl)methyl)cyclobutyl)benzamide] | 4520 | 540 | 1030 |
| COc1cc(F)cc(C(=O)N[C@H]2C[C@H](CS(=O)(=O)c3cccc(C(F)(F)F)c3)C2)c1 [Compound 349, 3-fluoro-5-methoxy-N-((1R,3R)-3-((3-(trifluoromethyl)phenylsulfonyl)methyl)cyclobutyl)benzamide] | > 10000 | > 10000 | 890 |
| Cn1nc(C(F)(F)F)cc1C(=O)N[C@H]1C[C@H](CS(=O)(=O)c2cccc(C(F)(F)F)c2)C1 [Compound 350, 1-methyl-3-(trifluoromethyl)-N-((1R,3R)-3-((3-(trifluoromethyl)phenylsulfonyl)methyl)cyclobutyl)-1H-pyrazole-5-carboxamide] | > 10000 | > 10000 | 1410 |
| CC1(NC(=O)CN[C@H]2C[C@H](CS(=O)(=O)c3cccc(C(F)(F)F)c3)C2)CCC1 [Compound 351, N-(1-methylcyclobutyl)-2-((1R,3R)-3-((3-(trifluoromethyl)phenylsulfonyl)methyl)cyclobutylamino)acetamide] | > 10000 | 7430 | 2770 |
| O=C(CN[C@H]1C[C@H](CS(=O)(=O)c2cccc(C(F)(F)F)c2)C1)NC1CCCCC1 [Compound 353, N-cyclohexyl-2-((1R,3R)-3-((3-(trifluoromethyl)phenylsulfonyl)methyl)cyclobutylamino)acetamide] | 5020 | 1980 | 3210 |
| O=C(NC[C@H]1C[C@H](S(=O)(=O)c2cccc(C(F)(F)F)c2)C1)c1ccc(F)c(C(F)(F)F)c1 [Compound 354, 4-fluoro-3-(trifluoromethyl)-N-(((1R,3R)-3-(3-(trifluoromethyl)phenylsulfonyl)cyclobutyl)methyl)benzamide] | > 10000 | 7060 | 140 |
| O=C(NC[C@H]1C[C@H](S(=O)(=O)c2cccc(C(F)(F)F)c2)C1)c1ccc(F)c(Cl)c1 [Compound 357, 3-chloro-4-fluoro-N-(((1R,3R)-3-(3-(trifluorornethyl)phenylsulfonyl)cyclobutyl)methyl)benzamide] | > 10000 | > 10000 | 200 |
| O=C(NC[C@H]1C[C@H](S(=O)(=O)c2cccc(C(F)(F)F)c2)C1)c1ccc(C(F)(F)F)cn1 [Compound 358, 5-(trifluoromethyl)-N-(((1R,3R)-3-(3-(trifluoromethyl)phenylsulfonyl)cyclobutyl)methyl)picolinamide] | 8370 | > 10000 | 190 |
| O=C(NC[C@H]1C[C@H](S(=O)(=O)c2cccc(C(F)(F)F)c2)C1)c1cn2cc(C(F)(F)F)ccc2n1 [Compound 360, 6-(trifluoromethyl)-N-(((1R,3R)-3-(3-(trifluoromethyl)phenylsulfonyl)cyclobutyl)methyl)imidazo[l,2-a]pyridine-2-carboxamide] | > 10000 | > 10000 | 190 |

These reach a lower IC50 [1]. Values come first.

| IC50 [1] [nM] | IC50 [2] [nM] | IC50 [3] [nM] | Structure (SMILES) |
| --- | --- | --- | --- |
| 2190 | 2020 | 510 | CC(C)S(=O)(=O)c1cc(C(F)(F)F)cnc1C(=O)N[C@H]1CC[C@H](CS(=O)(=O)c2cccc(C(F)(F)F)c2)CC1 [Compound 341, 3-(isopropylsulfonyl)-5-(trifluoromethyl)-N-((1R,4R)-4-((3-(trifluoromethyl)phenylsulfonyl)methyl)cyclohexyl)picolinamide] |
| 1710 | 760 | 720 | CC(C)S(=O)(=O)c1cc(C(F)(F)F)cnc1C(=O)N[C@H]1CC[C@@H](CS(=O)(=O)c2cccc(C(F)(F)F)c2)CC1 [Compound 342, 3-(isopropylsulfonyl)-5-(trifluoromethyl)-N-((1S,4S)-4-((3-(trifluoromethyl)phenylsulfonyl)methyl)cyclohexyl)picolinamide] |
| 1620 | 200 | 460 | O=C(NC[C@H]1C[C@H](S(=O)(=O)c2cccc(C(F)(F)F)c2)C1)c1ccnc(C(F)(F)F)c1 [Compound 361, 2-(trifluoromethyl)-N-(((1R,3R)-3-(3-(trifluoromethyl)phenylsulfonyl)cyclobutyl)methyl)isonicotinamide] |
| 1430 | 740 | 190 | Cn1nc(C(F)(F)F)cc1C(=O)NC[C@H]1C[C@H](S(=O)(=O)c2cccc(C(F)(F)F)c2)C1 [Compound 355, 1-methyl-3-(trifluoromethyl)-N-(((1R,3R)-3-(3-(trifluoromethyl)phenylsulfonyl)cyclobutyl)methyl)-1H-pyrazole-5-carboxamide] |
| 1260 | 410 | 5540 | O=C(N[C@H]1C[C@H](CS(=O)(=O)c2cccc(C(F)(F)F)c2)C1)c1ccc(C(F)(F)F)nc1 [Compound 346, 6-(trifluoromethyl)-N-((1R,3R)-3-((3-(trifluoromethyl)phenylsulfonyl)methyl)cyclobutyl)nicotinamide] |
| 690 | 1350 | 1060 | CN(C(=O)c1ccc(C(F)(F)F)cc1S(C)(=O)=O)[C@H]1CC[C@@](F)(S(=O)(=O)c2cc(F)cc(C(F)(F)F)c2)CC1 [Compound 336, N-((1S,4S)-4-fluoro-4-(3-fluoro-5-(trifluoromethyl)phenylsulfonyl)cyclohexyl)-N-methyl-2-(methylsulfonyl)-4-(trifluoromethyl)benzamide] |
| 640 | 230 | 3760 | CC(C)(C)NC(=O)CN[C@H]1C[C@H](CS(=O)(=O)c2cccc(C(F)(F)F)c2)C1 [Compound 352, N-tert-butyl-2-((1R,3R)-3-((3-(trifluoromethyl)phenylsulfonyl)methyl)cyclobutylamino)acetamide] |
| 630 | 270 | 1450 | O=C(N[C@H]1C[C@H](CS(=O)(=O)c2cccc(C(F)(F)F)c2)C1)c1ccc(Cl)c(F)c1 [Compound 343, 4-chloro-3-fluoro-N-((1R,3R)-3-((3-(trifluoromethyl)phenylsulfonyl)methyl)cyclobutyl)benzamide] |
| 520 | 210 | 1400 | CS(=O)(=O)c1cc(C(F)(F)F)cnc1C(=O)NC[C@H]1C[C@H](S(=O)(=O)c2cccc(C(F)(F)F)c2)C1 [Compound 364, 3-(methylsulfonyl)-5-(trifluoromethyl)-N-(((1R,3R)-3-(3-(trifluoromethyl)phenylsulfonyl)cyclobutyl)methyl)picolinamide] |
